Data set [1] is described as follows: Excretion (0-168h) of aliskiren in urine following intravenous administration of [14C] aliskiren hemifumarate at 1 mg.Kg-1 level in marmoset. In kind it is ADME, organism-based, Callithrix jacchus. The note with it: in vivo.
The nature of data set [2]: % of radioactivity recovered as aliskiren in plasma following intravenous administration of [14C] aliskiren hemifumarate at 10 mg.Kg-1 level in rat. It counts as ADME, organism-based, Albino HAN:WIST. The note with it: in vivo.
In data set [3] the target is CYP2E1 (Homo sapiens, UniProt P05181). As to the kind of experiment: Inhibition of CYP2E1 in human liver microsomes from 10 healthy donors at 200 uM aliskiren (SPP100). It counts as ADME, Microsome. On the set-up: conc 200 uM. Conditions: probe chlorzoxazone (6-hydroxylation). (Liver microsomes are vesicles of endoplasmic reticulum, rich in cytochrome P450 enzymes.)

Data set [4] is described as follows: Apparent terminal half-life (0-168h) of total radioactivity following single intravenous administration of [14C] aliskiren hemifumarate at 1 mg.Kg-1 level in marmoset. Conditions: in vivo. In kind it is ADME, organism-based, Callithrix jacchus, Plasma.
Data set [5] in a line: Excretion (0-24h) of radioactivity in urine following oral administration of [14C] aliskiren hemifumarate at 3 mg.Kg-1 level in marmoset. It counts as ADME, organism-based, Callithrix jacchus. Conditions: in vivo.
The nature of data set [6]: Excretion (0-24h) of radioactivity in faeces following intravenous administration of [14C] aliskiren hemifumarate at 1 mg.Kg-1 level in marmoset. In kind it is ADME, organism-based, Callithrix jacchus, Feces. Conditions: in vivo.
Data set [7] in a line: Excretion (24h) of radioactivity in urine following oral administration of [14C] aliskiren hemifumarate at 100 mg.Kg-1 level in rat. It counts as ADME, organism-based, Lister-Hooded. The note with it: in vivo.
The nature of data set [8]: Cmax of [14C] aliskiren hemifumarate following single oral dose of [14C] aliskiren hemifumarate at 500 mg.Kg-1 level in mouse. In kind it is ADME, organism-based, TgRasH2, Plasma. Conditions: in vivo.
Data set [9] can be described thus: Faecal elimination of aliskiren following single intravenous dose of [14C] aliskiren hemifumarate at 10 mg.Kg-1 level in mouse. It counts as ADME, organism-based, TgRasH2, Feces. Conditions: in vivo.
Data set [10] can be described thus: Excretion of radioactivity (0-24h) in urine following single intravenous dose of 10 mg.Kg-1 [14C] aliskiren hemifumarate in mouse. It counts as ADME, organism-based, TgRasH2. The note with it: in vivo.
The nature of data set [11]: Excretion of radioactivity (24-48h) in urine following single oral dose of 500 mg.Kg-1 [14C] aliskiren hemifumarate in mouse. In kind it is ADME, organism-based, TgRasH2. Conditions: in vivo.
A short description of data set [12]: Mean excretion of radioactivity (24-48h) in urine and faeces following single oral dose of 500 mg.Kg-1 [14C] aliskiren hemifumarate in mouse. The note with it: in vivo. In kind it is ADME, organism-based, TgRasH2, Urine/Feces.
Data set [13] is described as follows: Excretion of radioactivity (72-96h) in urine following single intravenous dose of 10 mg.Kg-1 [14C] aliskiren hemifumarate in rat. In kind it is ADME, organism-based, Albino HAN:WIST. Conditions: in vivo.
The nature of data set [14]: Excretion of radioactivity (72-96h) in faeces following single oral dose of 100 mg.Kg-1 [14C] aliskiren hemifumarate in rat. It counts as ADME, organism-based, Albino HAN:WIST, Feces. The note with it: in vivo.
Data set [15] is described as follows: Mean excretion of radioactivity (0-96h) in urine and faeces following single oral dose of 100 mg.Kg-1 [14C] aliskiren hemifumarate in rat. It counts as ADME, organism-based, Albino HAN:WIST, Urine/Feces. The note with it: in vivo.
Data set [16] can be described thus: Concentration of radioactivity in the colon wall following repeated oral administration of [14C] aliskiren hemifumarate at 100 mg.Kg-1 level studied at 24h after 7th dose in rat. In kind it is ADME, organism-based, Albino HAN:WIST. The note with it: in vivo.
Data set [17] can be described thus: Excretion of radioactivity (0-384h) in faeces following 10 day repeated oral administration of [14C] aliskiren hemifumarate at 100 mg.Kg-1 level studied in rat. The note with it: in vivo. In kind it is ADME, organism-based, Albino HAN:WIST, Feces.
A short description of data set [18]: Tmax (0-168h) of total radioactivity following single intravenous administration of [14C] aliskiren hemifumarate at 1 mg.Kg-1 level in marmoset. The note with it: in vivo. In kind it is ADME, organism-based, Callithrix jacchus, Plasma.
Data set [19] in a line: Cmax normalised (0-168h) of total radioactivity following single oral administration of [14C] aliskiren hemifumarate at 3 mg.Kg-1 level in marmoset. It counts as ADME, organism-based, Callithrix jacchus, Plasma. Conditions: in vivo.
Data set [20] is described as follows: AUC/dose (0-168h) of total radioactivity following single oral administration of [14C] aliskiren hemifumarate at 3 mg.Kg-1 level in marmoset. It counts as ADME, organism-based, Callithrix jacchus, Plasma. The note with it: in vivo.
A short description of data set [21]: Hepatic blood flow (0-168h) of unlabeled aliskiren hemifumarate following single intravenous administration of aliskiren hemifumarate at 1 mg.Kg-1 level in marmoset. It counts as ADME, organism-based, Callithrix jacchus, Liver. Conditions: in vivo.
A short description of data set [22]: Tmax of aliskiren hemifumarate following 8 day once-daily dosing of SPP100B oral solution at 160 mg level studied on day 8 in men. The note with it: male, human, plasma. It counts as ADME, organism-based.
The nature of data set [23]: Effect of 2 week oral dosing of aliskiren hemifumarate at 10 mg.Kg-1 level on hematological parameter values in male Callithrix jacchus. In kind it is toxicity, organism-based, Plasma. The note with it: marmoset, in vivo, 336 h.
The nature of data set [24]: Effect of 2 week oral dosing of aliskiren hemifumarate at 50 mg.Kg-1 level on hematological parameter values in male Callithrix jacchus. It counts as toxicity, organism-based, Plasma. Conditions: marmoset, in vivo, 336 h.
The nature of data set [25]: Effect of 2 week oral dosing of aliskiren hemifumarate at 50 mg.Kg-1 level on plasma magnesium level in male Callithrix jacchus. In kind it is toxicity, organism-based. Conditions: marmoset, 336 h.
Data set [26] is described as follows: Cmax of aliskiren hemifumarate following 2 week oral dosing of aliskiren hemifumarate at 50 mg.Kg-1 level studied on day 14 in male Callithrix jacchus. In kind it is ADME, organism-based. The note with it: marmoset, plasma.
Data set [27] is described as follows: Cmaxspec of aliskiren hemifumarate following 2 week oral dosing of aliskiren hemifumarate at 100 mg.Kg-1 level studied on day 1 in female Callithrix jacchus. It counts as ADME, organism-based, Plasma. Conditions: marmoset, in vivo, 336 h.
The nature of data set [28]: Bioavailability (0-96h) of unlabeled aliskiren hemifumarate following oral administration of aliskiren hemifumarate at 100 mg.Kg-1 level in rat. In kind it is ADME, organism-based. Conditions: Albino HAN:WIST, plasma.
The nature of data set [29]: Cmax/dose of aliskiren hemifumarate following 4 week oral dietary dosing of aliskiren hemifumarate at 500 mg.Kg-1 level in female mouse. In kind it is ADME, organism-based, CB6F1-TGrasH2. Conditions: in vivo, 672 h.
Data set [30] can be described thus: AUC (0-24h) of aliskiren hemifumarate following 4 week oral dietary dosing of aliskiren hemifumarate at 500 mg.Kg-1 level in female mouse. It counts as ADME, organism-based. The note with it: CB6F1-TGrasH2, mouse, plasma.
A short description of data set [31]: Tmax of aliskiren hemifumarate following 2 week oral dosing of aliskiren hemifumarate at 50 mg.Kg-1 level studied on day 1 in female Callithrix jacchus. In kind it is ADME, organism-based. Conditions: marmoset, plasma.
The nature of data set [32]: Tmax of aliskiren hemifumarate following 2 week oral dosing of aliskiren hemifumarate at 100 mg.Kg-1 level studied on day 1 in female Callithrix jacchus. The note with it: marmoset, plasma. It counts as ADME, organism-based.
Data set [33] is described as follows: AUC (0-24h)/dose of aliskiren hemifumarate following 4 week oral dietary dosing of aliskiren hemifumarate at 1000 mg.Kg-1 level in female mouse. In kind it is ADME, organism-based, CB6F1-TGrasH2, Plasma. Conditions: in vivo.
Data set [34] can be described thus: t1/2 of aliskiren hemifumarate following 2 week oral dosing of aliskiren hemifumarate at 100 mg.Kg-1 level studied on day 14 in male Callithrix jacchus. It counts as ADME, organism-based. Conditions: marmoset, plasma.
Data set [35] is described as follows: Cmax of aliskiren hemifumarate following repeated oral administration of [14C] aliskiren hemifumarate at 100 mg.Kg-1 level studied after 2h of dosing on day 1 in rat. In kind it is ADME, organism-based, Albino HAN:WIST. The note with it: in vivo, read-out: Cmax(1).
The nature of data set [36]: Cmax normalised (0-168h) of unlabeled aliskiren hemifumarate following single intravenous administration of aliskiren hemifumarate at 1 mg.Kg-1 level in marmoset. The note with it: in vivo. It counts as ADME, organism-based, Callithrix jacchus, Plasma.

Chain of CYP2E1 (P05181 whole entry): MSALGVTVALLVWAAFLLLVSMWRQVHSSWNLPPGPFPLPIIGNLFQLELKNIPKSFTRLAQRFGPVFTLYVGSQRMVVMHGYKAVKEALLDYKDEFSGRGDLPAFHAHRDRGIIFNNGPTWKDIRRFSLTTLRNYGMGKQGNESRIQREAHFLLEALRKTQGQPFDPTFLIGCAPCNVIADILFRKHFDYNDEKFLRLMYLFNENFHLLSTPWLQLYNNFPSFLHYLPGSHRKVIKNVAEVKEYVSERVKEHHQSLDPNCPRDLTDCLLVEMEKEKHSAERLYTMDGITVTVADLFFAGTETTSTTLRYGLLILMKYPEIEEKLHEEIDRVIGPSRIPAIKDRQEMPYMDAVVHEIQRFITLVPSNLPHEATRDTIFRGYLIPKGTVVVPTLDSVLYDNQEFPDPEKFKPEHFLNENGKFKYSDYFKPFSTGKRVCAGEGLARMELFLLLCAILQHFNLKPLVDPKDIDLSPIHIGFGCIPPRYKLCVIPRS

A word on the inhibition: it is the drop in the measured response relative to a control, in per cent. On to `COCCCOc1cc(C[C@@H](C[C@H](N)[C@@H](O)C[C@H](C(=O)NCC(C)(C)C(N)=O)C(C)C)C(C)C)ccc1OC`, for which the Compound recovery was 3% in data set [1] and above 40% in data set [2]. Moreover, the inhibition at 200 µM in [3] was -12.8%.
A word on the Cmax: it is the highest concentration seen after dosing. In general, Tmax refers to the time from dosing to the highest level. As to `COCCCOc1cc(C[C@@H](C[C@H](N)[C@@H](O)C[C@H](C(=O)NCC([14CH3])([14CH3])C(N)=O)C(C)C)C(C)C)ccc1OC.O=C(O)/C=C/C(=O)O`, the t1/2 in data set [4] is 39.5 h. For the same compound, the Radiolabel recovery in [5] is reported as 2.22%; in data set [6], 51.5%; in data set [7], 73%; in data set [9], “OUTCOME = Observed, VALUE = Elimination of aliskiren occurred mainly via the biliary or faecal route”; in [10], 69.49%; in data set [11], 1.02%. Also, the Radiolabel recovery in data set [12] is 10.51%; in [13], 2.5%; in data set [14], 0.17%; in data set [15], 95.1%; in [16] it was “OUTCOME = Observed, VALUE = Highest radioactivity concentration was observed”; in data set [17], 102%. This compound displayed a Cmax in data set [8] of 2.17 µM. Moreover, the Tmax in data set [18] is 4.98 min. In addition, the Cmax normalised in data set [19] was 0.12 (umol/L)/(mg/kg). Moreover, the AUC normalised in [20] is 1.61 (umol.h/L)/(mg/kg).
The term bioavailability denotes dose-corrected exposure relative to a reference, in per cent. A higher bioavailability goes with good availability. As a reminder, the AUC(0-t) is exposure summed from dosing to a finite time, without extrapolation to infinity. For orientation: half-life means the time needed for the level to fall by half in the phase considered. Higher therefore signals slow decline. As to `COCCCOc1cc(C[C@@H](C[C@H](N)[C@@H](O)C[C@H](C(=O)NCC(C)(C)C(N)=O)C(C)C)C(C)C)ccc1OC.COCCCOc1cc(C[C@@H](C[C@H](N)[C@@H](O)C[C@H](C(=O)NCC(C)(C)C(N)=O)C(C)C)C(C)C)ccc1OC.O=C(O)/C=C/C(=O)O` [ALISKIREN FUMARATE], the Hepatic blood flow in data set [21] is 2.8 L·h/kg. In addition, the Tmax in data set [22] is 4.1 h; in data set [31] it was 1 h; in [32], 1 h. Further, the Change in hematology result in data set [23] and in data set [24] was “OUTCOME = Hematological parameter values did not differ from control values. No animals died during the study” each time. Besides, the “Plasma magnesium_CHANGE_BY” value in [25] came out at 130%. For the same compound, the peak concentration (Cmax) in data set [26] stood at 12.3 µg/mL; in [35], 0.639 µM. The Cmax normalised in [27] is 0.079 (ug/ml)/(mg/kg); in data set [29] it was 0.128 (ng/mL)/(mg/kg/day); in data set [36] it was 14.24 (umol/L)/(mg/kg). The compound also showed a bioavailability in data set [28] of 2.4%. In [30], this compound yielded an AUC(0-t) at 24 h of 0.857 µg·h/mL. For the same compound, the AUC normalised in [33] was 2.28 ((ng/mL).hours)/(mg/kg/day). For the same compound, in [34], the half-life was 7.8 h.
